Measurements from BindingDB's records for doi:10.7270/Q2TX3CTT (Broad Institute, 2010).
Structures can show the parent of a compound that is named as a salt.

Target: Glycogen synthase kinase-3 beta (Homo sapiens, UniProt P49841)
Assay: concentration-response blocking of human GSK3B – biochemical, luminescence, cell-free homogeneous, retest, dose response (AID 434954)

Glycogen synthase kinase-3 beta, sequence (P49841 whole entry): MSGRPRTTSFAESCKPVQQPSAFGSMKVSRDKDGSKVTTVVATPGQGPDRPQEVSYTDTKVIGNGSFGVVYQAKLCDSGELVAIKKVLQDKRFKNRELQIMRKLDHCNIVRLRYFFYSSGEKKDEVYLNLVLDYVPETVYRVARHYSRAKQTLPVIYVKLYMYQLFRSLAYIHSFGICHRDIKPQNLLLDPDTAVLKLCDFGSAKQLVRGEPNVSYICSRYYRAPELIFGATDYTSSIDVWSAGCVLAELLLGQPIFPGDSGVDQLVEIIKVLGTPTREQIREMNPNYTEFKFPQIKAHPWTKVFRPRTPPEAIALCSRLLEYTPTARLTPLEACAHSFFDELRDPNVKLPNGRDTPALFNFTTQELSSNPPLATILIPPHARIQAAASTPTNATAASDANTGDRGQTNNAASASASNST

Work on `CC(C)OCCCN1CN(S(=O)(=O)c2cccc(Cl)c2)c2nc3ccccc3nc21` [1-(3-Chloro-benzenesulfonyl)-3-(3-isopropoxy-propyl)-2,3-dihydro-1H-imidazo[4,5-b]quinoxaline] yielded an EC50 of over 300 µM.
In the case of `O=C(O)c1cc(-c2ccc(C=NNC(=S)Nc3ccccc3)o2)ccc1Cl` [5-[5-[[[anilino(sulfanylidene)methyl]hydrazinylidene]methyl]-2-furanyl]-2-chlorobenzoic acid], the EC50 is reported as over 300 µM.
`COc1cccc2c1cc1c(=O)n(CC(=O)NCCCc3ccccc3)nc(C)n12` [MLS001076397] showed an EC50 of over 300 µM.
`CCOc1cc(C2c3c(n[nH]c3C)N=C3CC(C)(C)CC(=O)C32)ccc1O` (stereo unspecified) [MLS000736418] was tested, and the EC50 was 3.32 µM.
For `Nc1nc(Cl)nc2c1ncn2C1OC(CO)C(O)C1O` (stereo unspecified), the EC50 was over 300 µM.
Work on `CN(Cc1ccccc1)Cc1nc2c([nH]1)c(=O)n(C)c(=O)n2C` [1,3-dimethyl-8-[[methyl-(phenylmethyl)amino]methyl]-7H-purine-2,6-dione] yielded an EC50 of over 300 µM.
For `COCCNc1nc(SC)nc2sc3c(c12)CCN(C)C3` [N-(2-methoxyethyl)-7-methyl-2-methylsulfanyl-6,8-dihydro-5H-pyrido[4,5]thieno[1,2-c]pyrimidin-4-amine], the EC50 was 198 µM.
Molecule `CC1CCN(Cc2c(C(=O)NN=Cc3ccccc3O)nnn2-c2nonc2N)CC1` [SMR000620333] has an EC50 of 0.7 µM.
`O=C(Cc1ccc(F)cc1)NN=Cc1ccc(-c2ccc(Cl)c(C(=O)O)c2)o1` gave an EC50 of over 300 µM.
`O=C(c1cccs1)c1coc2ccc(O)c(CN3CCOCC3)c12` [[4-(morpholin-4-ylmethyl)-5-oxidanyl-1-benzofuran-3-yl]-thiophen-2-yl-methanone] gave an EC50 of over 300 µM.
With `c1ccc(-c2nnc(-c3ccncc3)nc2-c2ccccc2)cc1` the EC50 was over 300 µM.
Molecule `CCOc1ccc2c(c1)C(NC(C)=O)C(=O)N2CCN1CCOCC1` (stereo unspecified) [N-[5-ethoxy-1-(2-morpholin-4-ylethyl)-2-oxo-3H-indol-3-yl]acetamide;hydrochloride] has an EC50 of over 300 µM.
With `Cc1n[nH]c(O)c1N=Nc1ccc(S(N)(=O)=O)cc1` [4-[2-(3-methyl-5-oxopyrazol-4-yl)hydrazinyl]benzenesulfonamide] the EC50 was 36.6 µM.
Molecule `CC1(C)Nc2ccc(O)cc2-c2c1ssc2=S` [SMR000038969] has an EC50 of 21.4 µM.
With `CC(C)(C)c1csc(NC(=O)c2cccnc2)n1` [SMR000496644] the EC50 was over 300 µM.
`COc1ccc(C(=O)OCCc2ccc(O)cc2)cc1` was tested, and the EC50 was over 300 µM.
`C=CCN1C(=O)NC(=O)/C(=C/c2ccc(OCC(=O)Nc3ccc(C)cc3)cc2)C1=O` [SMR000673044] was tested, and the EC50 was over 300 µM.
`CCN(CC)C(=O)CSc1nc(N)c(C#N)c(-c2cccs2)c1C#N` [SMR000115110] was tested, and the EC50 was over 300 µM.
`Cc1ncc(CN2CCCC(C(=O)Nc3ccc(-c4cccc(F)c4)cc3)C2)cn1` (stereo unspecified) [N-[4-(3-fluorophenyl)phenyl]-1-[(2-methylpyrimidin-5-yl)methyl]piperidine-3-carboxamide] gave an EC50 of over 300 µM.
For `CC(=NNC(=O)c1ccc(C(=O)NN=C(C)c2ccco2)o1)c1ccco1` [N'~2~,N'~5~-bis[1-(2-furyl)ethylidene]-2,5-furandicarbohydrazide], the EC50 was over 300 µM.
In the case of `CCCC1=Nc2ncnn2C(c2sccc2C)C1C(=O)OCC` (stereo unspecified) [SMR000440057], the EC50 is reported as over 300 µM.
`CC(=O)Nc1ccccc1C(=O)OCc1ccc(C(=O)c2ccccc2)cc1` gave an EC50 of over 300 µM.
In the case of `COCC(C)n1c(C)cc(C(=O)COC(=O)c2ccc3c(c2)NC(=O)CS3)c1C` (stereo unspecified), the EC50 is reported as over 300 µM.
Work on `O=C(COc1ccccc1)Nc1ccc2c(c1)C(=O)N(CC1CCCO1)C2=O` (stereo unspecified) [SMR000291909] yielded an EC50 of over 300 µM.
In the case of `Cc1nn(CC(=O)NCCCN2CCCCC2)c(=O)c2cccn12` [2-(4-methyl-1-oxidanylidene-pyrrolo[1,2-d][1,2,4]triazin-2-yl)-N-(3-piperidin-1-ylpropyl)ethanamide], the EC50 is reported as over 300 µM.
`CN(C)CCCNc1nc(N)c([N+](=O)[O-])c(NC2CCCCC2)n1` [MLS001213448] showed an EC50 of 3.15 µM.
`CC1(C)CC(=O)C=C(Nc2cccc(Cl)c2Cl)C1` [3-[(2,3-dichlorophenyl)amino]-5,5-dimethylcyclohex-2-en-1-one] gave an EC50 of over 300 µM.
Molecule `Cc1ccc(-c2nn(-c3ccccc3)cc2C=NNS(=O)(=O)c2ccccc2)cc1` [SMR000186234] has an EC50 of over 300 µM.
`Clc1ccc(CSc2nnc(-c3ccncc3)o2)c(Cl)c1` [2-[(2,4-dichlorobenzyl)thio]-5-(4-pyridyl)-1,3,4-oxadiazole] showed an EC50 of 6.31 µM.
Work on `CCN1C(=O)[C@H]2[C@@H](c3ccc(-c4ccccc4)cc3)N[C@@](CC(C)C)(C(=O)OC)[C@H]2C1=O` [SMR000814381] yielded an EC50 of over 300 µM.
`CCCN(CCC)Cc1c(C(=O)NN=Cc2ccco2)nnn1-c1nonc1N` showed an EC50 of over 300 µM.
Work on `CCN(CC)Cc1c(C(=O)NN=Cc2ccco2)nnn1-c1nonc1N` [1-(4-amino-1,2,5-oxadiazol-3-yl)-5-(diethylaminomethyl)-N-(2-furanylmethylideneamino)-4-triazolecarboxamide] yielded an EC50 of 119 µM.
`O=C(Nc1cccc2c1C(=O)NC2=O)c1cccc(-n2c(O)ccc2O)c1` showed an EC50 of over 300 µM.
With `CCSc1ccc2nnc(-c3cccs3)n2n1` [6-ethylsulfanyl-3-thiophen-2-yl-[1,2,4]triazolo[4,3-b]pyridazine] the EC50 was 11.3 µM.
`Clc1ccccc1CN1CCN(c2cccc3[nH]ccc23)CC1` [4-[4-[(2-chlorophenyl)methyl]piperazin-1-yl]-1H-indole] showed an EC50 of over 300 µM.
Molecule `CCNc1ccc(S(=O)(=O)N(C)C)cc1NCC(=O)Nc1ccc(Br)cc1F` [N-(4-bromanyl-2-fluoranyl-phenyl)-2-[[5-(dimethylsulfamoyl)-2-(ethylamino)phenyl]amino]ethanamide] has an EC50 of over 300 µM.
Work on `COc1cccc2cc(C(=O)OCc3ccccc3)c(=O)oc12` [(phenylmethyl) 8-methoxy-2-oxidanylidene-chromene-3-carboxylate] yielded an EC50 of over 300 µM.
Work on `O=C(CN1C(=O)COc2ccccc21)Nc1ccccc1F` [MLS001205921] yielded an EC50 of over 300 µM.
For `Nc1ncnc(Nc2cccc(C(F)(F)F)c2)n1`, the EC50 was over 300 µM.
`Cc1ccc(C)c(CSc2nnc(-c3cccnc3)o2)c1` [MLS000074430] showed an EC50 of over 300 µM.
`CC(NC(=O)/C=C/c1ccco1)c1nc2ccccc2n1Cc1ccccc1F` (stereo unspecified) gave an EC50 of over 300 µM.
`CCc1ccc(NC(=O)C(NS(=O)(=O)c2cccc3nsnc23)c2ccccc2)cc1` (stereo unspecified) [2-(2,1,3-benzothiadiazol-4-ylsulfonylamino)-N-(4-ethylphenyl)-2-phenyl-ethanamide] gave an EC50 of over 300 µM.
Work on `O=Cc1cn(CCC(=O)O)nc1-c1cccc(Cl)c1` yielded an EC50 of over 300 µM.
In the case of `O=C(Nc1ccc(O)c2c(=O)cc(-c3ccccc3Cl)oc12)c1ccc(F)cc1` [N-[2-(2-chlorophenyl)-5-oxidanyl-4-oxidanylidene-chromen-8-yl]-4-fluoranyl-benzamide], the EC50 is reported as 13.9 µM.
Molecule `CCSc1ccc2nnc(-c3ccc(F)cc3)n2n1` [SMR000028943] has an EC50 of 2.82 µM.
`O=c1cc(-c2ccccc2)oc2cc(O)cc(O)c12` [5,7-dihydroxy-2-phenyl-4H-chromen-4-one] showed an EC50 of over 300 µM.
`COCCNc1nc(N)c([N+](=O)[O-])c(Nc2ccc(F)cc2)n1` was tested, and the EC50 was over 300 µM.
`Nc1nc(NCCO)nc(NC2CCCCC2)c1[N+](=O)[O-]` [2-[[4-amino-6-(cyclohexylamino)-5-nitro-2-pyrimidinyl]amino]ethanol] was tested, and the EC50 was 1.36 µM.
`CC1(C)Oc2ccc(C(=O)N3CCOCC3)cc2N(CC(=O)N2CCOCC2)C1=O` gave an EC50 of over 300 µM.
`O=C(NCCCN1CCCCC1)c1ccc2c(c1)NC(=O)c1ccccc1S2` [6-oxidanylidene-N-(3-piperidin-1-ylpropyl)-5H-benzo[b][1,4]benzothiazepine-3-carboxamide] was tested, and the EC50 was over 300 µM.
In the case of `O=C1N=C(N2CCc3ccccc3C2)S/C1=C\c1ccc(O)cc1` [MLS001043290], the EC50 is reported as over 300 µM.
For `CCCN1CCN(CCCNC(=O)c2ccc3c(c2)NC(=O)c2ccccc2S3)CC1` [MLS001110989], the EC50 was over 300 µM.
With `CNc1nc(N)c([N+](=O)[O-])c(NC2CCCCC2)n1` [4-N-cyclohexyl-2-N-methyl-5-nitropyrimidine-2,4,6-triamine] the EC50 was 7.52 µM.
For `CC(C)C(=O)NC(C)C(c1cccs1)N1CCN(c2ccccc2)CC1` (stereo unspecified) [SMR000016589], the EC50 was over 300 µM.
`O=C1/C(=C\c2ccc(O)cc2)SC(=S)N1Cc1ccccc1` [(5E)-5-[(4-hydroxyphenyl)methylidene]-3-(phenylmethyl)-2-sulfanylidene-1,3-thiazolidin-4-one] gave an EC50 of over 300 µM.
`O=NCc1ccc(SCc2ccccc2)c([N+](=O)[O-])c1` [SMR000169144] showed an EC50 of over 300 µM.
`COc1cccc(OC)c1OCCNCC1COc2ccccc2O1` (stereo unspecified) [WB-4101 hydrochloride] showed an EC50 of over 300 µM.
With `COC(=O)[C@@H]1Cc2c([nH]c3ccccc23)C2CCC(=O)N21` (stereo partly drawn) [methyl (5S)-3-oxidanylidene-1,2,5,6,11,11b-hexahydroindolizino[8,7-b]indole-5-carboxylate] the EC50 was over 300 µM.
Molecule `CCCN(CCC)Cc1c(C(=O)NN=Cc2ccsc2)nnn1-c1nonc1N` [SMR000620321] has an EC50 of 4.13 µM.
`COc1ccc(NC(=O)c2cccc(N3C(=O)c4cccc([N+](=O)[O-])c4C3=O)c2)cc1` [MLS001125857] showed an EC50 of over 300 µM.
Molecule `COc1cccc2cc(C(C)=O)c(=O)oc12` [3-acetyl-8-methoxy-2H-chromen-2-one] has an EC50 of over 300 µM.
Molecule `COCCn1c(SCC(=O)Nc2ccc(Cl)cn2)nc2ccccc21` [N-(5-chloropyridin-2-yl)-2-[1-(2-methoxyethyl)benzimidazol-2-yl]sulfanylacetamide] has an EC50 of 3.82 µM.
With `Cc1ccc(NC(=S)NC2CC3CCC(C2)N3Cc2ccco2)c(C)c1` (stereo unspecified) [1-(2,4-dimethylphenyl)-3-[8-(2-furanylmethyl)-8-azabicyclo[3.2.1]octan-3-yl]thiourea] the EC50 was over 300 µM.
`O=C(NCc1ccncc1)C1CCC(=O)N(CCc2ccc(Cl)cc2)C1` (stereo unspecified) [MLS001100847] was tested, and the EC50 was over 300 µM.
For `Nc1nc(N)nc(-c2cc(Cl)ccc2Cl)n1` [SMR000471621], the EC50 was over 300 µM.
Work on `O=C(NN=Cc1ccco1)c1ccn[nH]1` [SMR000279368] yielded an EC50 of over 300 µM.
In the case of `O=NCc1ccc(N2CCCC2)c([N+](=O)[O-])c1`, the EC50 is reported as 5.66 µM.
Work on `O=C(O)Cn1c(=O)c2c3c(sc2n(Cc2ccccc2F)c1=O)CCCC3` [SMR000544593] yielded an EC50 of over 300 µM.
Molecule `CCOC(=O)C1C(C)=Nc2ncnn2C1c1ccc2c(c1)OCO2` (stereo unspecified) has an EC50 of over 300 µM.
In the case of `O=C(CCc1ccccc1)Nc1ccc2c(c1)OCCO2` [N-(2,3-dihydro-1,4-benzodioxin-6-yl)-3-phenyl-propanamide], the EC50 is reported as over 300 µM.
`O=C(Nc1ncc(Cc2ccccc2Cl)s1)C1CCCO1` (stereo unspecified) [Tetrahydro-furan-2-carboxylic acid [5-(2-chloro-benzyl)-thiazol-2-yl]-amide] showed an EC50 of 27.6 µM.
